# Reference: patent US20250099448A1, “HETEROCYCLIC COMPOUNDS” (Hoffmann-La Roche Inc., priority 2022, published 2025)
# Molecular target: T1, MAGL protein (Homo sapiens, UniProt Q99685)
# T1 sequence (Q99685 1-303): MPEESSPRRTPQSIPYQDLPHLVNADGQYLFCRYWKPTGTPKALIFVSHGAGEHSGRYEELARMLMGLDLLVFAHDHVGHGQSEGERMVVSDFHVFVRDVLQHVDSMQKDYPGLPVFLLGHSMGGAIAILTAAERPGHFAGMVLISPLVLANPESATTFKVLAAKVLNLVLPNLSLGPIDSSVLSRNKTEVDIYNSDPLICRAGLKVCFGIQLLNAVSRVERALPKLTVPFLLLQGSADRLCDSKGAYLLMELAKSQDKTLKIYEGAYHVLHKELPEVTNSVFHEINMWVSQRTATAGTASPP
# Test: 2-AG assay: MAGL inhibitory activity by hydrolysis of 2-arachidonoylglycerol to arachidonic acid, followed by mass spectrometry
# Format: biochemical
# Settings: 8 μM 2-arachidonoylglycerol, 15 min preincubation, 30 min reaction at RT, RapidFire MS readout
# Experimental: Compounds of formula (I) were profiled for MAGL inhibitory activity by determining the enzymatic activity by following the hydrolysis of the natural substrate 2-arachidonoylglycerol (2-AG) resulting in arachidonic acid, which can be followed by mass spectrometry. This assay is hereinafter abbreviated “2-AG assay”. The 2-AG assay was carried out in 384 well polypropylene assay plates. Compound dilutions were made in 100% DMSO in a polypropylene plate in 3-fold dilution steps to give a final concentration range in the assay from 12.5 μM to […]. Compound dilutions were added to MAGL protein in assay buffer (50 mM TRIS, 1 mM EDTA, 0.01% (v/v) Tween-20, 2.5% (v/v) DMSO). After shaking, the plate was incubated for 15 min at RT. To start the reaction, 2-arachidonoylglycerol in assay buffer was added. The final concentrations in the assay was […] for MAGL protein and 8 μM 2-arachidonoylglyerol. After shaking and 30 min incubation at RT, the reaction was quenched by the addition of two assay volumes of acetonitrile containing 4 μM of d8-arachidonic acid. The amount of arachidonic acid formed was traced by an online SPE system (Agilent Rapidfire) coupled to a triple quadrupole mass spectrometer. A C18 SPE cartridge (Agilent G9205A) was used in an acetonitrile/water liquid setup. The mass spectrometer was operated in negative electrospray mode following the mass transitions 303.1→259.1 for arachidonic acid and 311.1→267.0 for d8-arachidonic acid. The activity of the compounds was calculated based on the ratio of intensities [arachidonic acid/d8-arachidonic acid].
row,SMILES,IC50
1,"O=C(O)c1ccccc1-c1ccc(C2CN(C(=O)N3CC4(CC(c5nnc(C6CC6)[nH]5)C4)C3)C2)cc1 [Example 390, 2-[4-[1-[6-(5-cyclopropyl-4H-1,2,4-triazol-3-yl)-2-azaspiro[3.3]heptane-2-carbonyl]azetidin-3-yl]phenyl]benzoic Acid]",1.06 nM
2,"CCNC(=O)c1ccccc1-c1ccc(C2CN(C(=O)N3CC4(CC(c5nnc(C6CC6)[nH]5)C4)C3)C2)cc1 [Example 391, 2-[4-[1-[6-(5-cyclopropyl-4H-1,2,4-triazol-3-yl)-2-azaspiro[3.3]heptane-2-carbonyl]azetidin-3 yl]phenyl]-N-ethyl-benzamide]",48.3 nM
3,"O=C(N1CC(c2ccc(C3(C(=O)O)CC3)cc2)C1)N1CC2(CC(c3nnc(C4CC4)[nH]3)C2)C1 [Example 392, 1-[4 [1-[6-(5-cyclopropyl-4H-1,2,4-triazol-3-yl)-2-azaspiro[3.3]heptane-2-carbonyl]azetidin-3-yl]phenyl]cyclopropanecarboxylic Acid]",6.59 nM
4,"NC(=O)C1(c2ccc(C3CN(C(=O)N4CC5(CC(c6nnc(C7CC7)[nH]6)C5)C4)C3)cc2)CC1 [Example 393, 1-[4-[1-[6-(5-cyclopropyl-4H-1,2,4-triazol-3-yl)-2-azaspiro[3.3]heptane-2-carbonyl]azetidin-3-yl]phenyl]cyclopropanecarboaamide]",1.2 nM
5,"NC(=O)[C@@H]1CCCCN1c1ccc(C2CN(C(=O)N3CC4(CC(c5nnc(C6CC6)[nH]5)C4)C3)C2)cc1 [Example 394, (2S)-1-[4-[1-[6-(5-cyclopropyl-4H-1,2,4-triazol-3-yl)-2-azaspiro[3.3]heptane-2-carbonyl]azetidin-3 yl]phenyl]piperidine-2-carboxamide]",1.49 nM
6,"NC(=O)[C@@H]1CC(F)(F)CCN1c1ccc(C2CN(C(=O)N3CC4(CC(c5nnc(C6CC6)[nH]5)C4)C3)C2)cc1 [Example 395, (2S)-1-[4-[1-[6-(5-cyclopropyl-4H-1,2,4-triazol-3-yl)-2-azaspiro[3.3]heptane-2-carbonyl]azetidin-3-yl]phenyl]-4,4-difluoro-piperidine-2-carboxamide]",1.28 nM

# Next, values leading:
row,IC50,SMILES
1,4.77 nM,"NC(=O)[C@H]1CC(F)(F)CCN1c1ccc(C2CN(C(=O)N3CC4(CC(c5nnc(C6CC6)[nH]5)C4)C3)C2)cc1 [Example 396, (2R)-1-[4-[1-[6-(5-cyclopropyl-4H-1,2,4-triazol-3-yl)-2-azaspiro[3.3]heptane-2-carbonyl]azetidin-3-yl]phenyl]-4,4-difluoro-piperidine-2-carboxamide]"
2,2.42 nM,"NC(=O)[C@@H]1CCCN1c1ccc(C2CN(C(=O)N3CC4(CC(c5nnc(C6CC6)[nH]5)C4)C3)C2)cc1 [Example 397, (2S)-1-[4-[1-[6-(5-cyclopropyl-4H-1,2,4-triazol-3-yl)-2-azaspiro[3.3]heptane-2-carbonyl]azetidin-3-yl]phenyl]pyrrolidine-2-carboxamide]"
3,2.4 nM,"NC(=O)[C@H]1CCCN1c1ccc(C2CN(C(=O)N3CC4(CC(c5nnc(C6CC6)[nH]5)C4)C3)C2)cc1 [Example 398, (2R)-1 [4-[1-[6-(5-cyclopropyl-4H-1,2,4-triazol-3-yl)-2-azaspiro[3.3]heptane-2-carbonyl]azetidin-3-yl]phenyl]pyrrolidine-2-carboxamide]"
4,38.1 nM,"CS(=O)(=O)c1cc(Cl)ccc1CC1CC2(CCN(C(=O)N3CC4(CC(c5nnc(C6CC6)[nH]5)C4)C3)C2)C1 (stereo not drawn) [Example 414, [2-(4-chloro-2-mesyl-benzyl)-6-azaspiro[3.4]octan-6-yl]-[6-(5-cyclopropyl-4H-1,2,4-triazol-3-yl)-2-azaspiro[3.3]heptan-2-yl]methanone]"
5,13.3 nM,"CC(C)(O)Cn1nc(C2CCN(C(=O)N3CC4(CC(c5nnc(C6CC6)[nH]5)C4)C3)CC2)c2cc(Cl)ccc21 [Example 416, [4-[5-chloro-1-(2-hydroxy-2-methyl-propyl)indazol-3-yl]piperidino]-[6-(5-cyclopropyl-4H-1,2,4-triazol-3-yl)-2-azaspiro[3.3]heptan-2-yl]methanone]"
6,11.8 nM,N=S(=O)(c1ccc(C(F)(F)F)cc1)C1CCC2(CC1)CN(C(=O)N1CC3(CC(c4nc(C5CC5)n[nH]4)C3)C1)C2 (stereo not drawn) [Example 429]
